Measured values: patent publication EP4603105A1, “PHARMACEUTICAL COMPOSITION CONTAINING CYCLIC COMPOUND HAVING SELECTIVE KRAS INHIBITORY EFFECT AGAINST HRAS AND NRAS” (CHUGAI SEIYAKU KABUSHIKI KAISHA, priority 2022, dated 2024)

What was measured:
[1] = target: GDP-bound NRAS wild-type protein (Homo sapiens, UniProt P01111); assay: Binding to NRAS by surface plasmon resonance (SPR), KD and KD ratio to KRAS; details: ratio of KD for GDP-bound NRAS wild-type protein to KD for KRAS
In short: (§1)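 Affinity is measured by surface plasmon resonance at 30°C against captured, GDP-loaded RAS carrying a biotinylated Avi tag. Compounds are titrated by single-cycle kinetics, and KD comes from a 1:1 fit.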

HRAS wild-type protein = HRAS wild-type protein (Homo sapiens, UniProt P01112); assay: Binding to HRAS by surface plasmon resonance (SPR), KD and KD ratio to KRAS; details: ratio of KD for HRAS wild-type protein to KD for KRAS
In short: as §1

[2] = tested on: human lung cancer strain NCI-H441; assay: NCI-H441 cell proliferation inhibitory activity (CellTiter-Glo, 4 days); type: cell-based; details: NCI-H441 cells, 4 days, read-out: NCl-H441 IC50
In short: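 Readout: […] after the ATP-based reagent. Compound: serial dilutions in dimethyl sulfoxide.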

[3] = target: GDP-bound KRAS wild-type protein (Homo sapiens, UniProt P01116); assay: Binding to KRAS by surface plasmon resonance (SPR), dissociation constant KD; details: Single Cycle Kinetics
In short: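 GDP-bound biotin-Avi RAS captured at ~100–300 RU, 30°C, pH 7.4 HBS containing 10 µM GDP, 10 mM MgCl2, 1 mM DTT, 0.01% Tween 20 and 4% DMSO. KD by 1:1 fitting.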

Sequence of GDP-bound NRAS wild-type protein (P01111 whole entry): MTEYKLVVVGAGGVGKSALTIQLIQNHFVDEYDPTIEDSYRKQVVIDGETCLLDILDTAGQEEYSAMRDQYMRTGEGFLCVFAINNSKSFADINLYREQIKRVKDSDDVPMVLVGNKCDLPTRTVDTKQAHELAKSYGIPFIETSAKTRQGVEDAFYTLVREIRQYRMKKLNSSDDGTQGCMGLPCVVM
Sequence of HRAS wild-type protein (P01112 whole entry): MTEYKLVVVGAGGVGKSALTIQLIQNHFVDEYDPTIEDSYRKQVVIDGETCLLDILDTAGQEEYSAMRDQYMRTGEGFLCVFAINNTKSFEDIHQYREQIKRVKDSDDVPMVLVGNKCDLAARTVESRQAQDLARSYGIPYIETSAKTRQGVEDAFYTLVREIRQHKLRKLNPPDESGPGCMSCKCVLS
Sequence of GDP-bound KRAS wild-type protein (P01116 1-188 isoform P01116-2): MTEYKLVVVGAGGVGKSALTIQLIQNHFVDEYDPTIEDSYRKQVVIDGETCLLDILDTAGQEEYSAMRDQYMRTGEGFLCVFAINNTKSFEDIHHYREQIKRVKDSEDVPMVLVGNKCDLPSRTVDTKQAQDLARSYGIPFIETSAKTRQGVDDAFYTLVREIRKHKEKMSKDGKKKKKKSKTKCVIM

Compound | IC50 [2] [nM] | Kd [3] [nM] | NRAS /KRAS [1] | HRAS /KRAS (HRAS wild-type protein)
CCC[C@H]1C(=O)N[C@@H]([C@@H](C)CC)C(=O)N(C)CC(=O)N(C)[C@H]2C/C=C\CCN(C2=O)[C@@H](Cc2ccc(C)cc2)C(=O)N(C)CC(=O)N[C@@H](CCc2ccc(C(F)(F)F)c(OC)c2)C(=O)N2CC[C@H](OC)[C@H]2C(=O)N(C)C2(CCC2)C(=O)N(C)[C@@H](C2CCCC2)C(=O)N(C)[C@H](C(=O)N(C)C)CC(=O)N1C [PP3249] | 4.2 | 0.059 | A (a compound having 10 or more and less than 20 is denoted as A) | B (a compound having 3 or more and less than 10 is denoted as B)
C#CC[C@H]1C(=O)N[C@@H]([C@@H](C)CC)C(=O)N(C2CC2)CC(=O)N(C)[C@H]2C/C=C\CCN(C2=O)[C@@H](Cc2ccc(C)cc2)C(=O)N(C)CC(=O)N[C@@H](CCc2cc(F)c(C(F)(F)F)c(F)c2)C(=O)N2C[C@H](OCC)C[C@H]2C(=O)N(C)C2(CCC2)C(=O)N(C)[C@@H](C2CCCC2)C(=O)N(C)[C@H](C(=O)N(C)C)CC(=O)N1C [PP3250] | 2.8 | 0.1 | A (a compound having 10 or more and less than 20 is denoted as A) | B (a compound having 3 or more and less than 10 is denoted as B)
C#CC[C@H]1C(=O)N[C@@H]([C@@H](C)CC)C(=O)N(C2CC2)CC(=O)N(C)[C@H]2C/C=C\CCN(C2=O)[C@@H](Cc2ccc(C)cc2)C(=O)N(C)CC(=O)N[C@@H](CCc2ccc(C(F)(F)F)c(Cl)c2)C(=O)N2C[C@H](OCC)C[C@H]2C(=O)N(C)C2(CCC2)C(=O)N(C)[C@@H](C2CCCC2)C(=O)N(C)[C@H](C(=O)N(C)C)CC(=O)N1C [PP3251] | 4.1 | 0.12 | B (a compound having 3 or more and less than 10 is denoted as B) | B (a compound having 3 or more and less than 10 is denoted as B)
C#CC[C@H]1C(=O)N[C@@H]([C@@H](C)CC)C(=O)N2CCC[C@H]2C(=O)N(C)[C@H]2C/C=C\CCN(C2=O)[C@@H](Cc2ccc(C(F)(F)F)cc2)C(=O)N(C)CC(=O)N[C@@H](CCc2ccc(C(F)(F)F)c(OC)c2)C(=O)N2C[C@H](OCC)C[C@H]2C(=O)N(C)C2(CCC2)C(=O)N(C)[C@@H](C2CCCC2)C(=O)N(C)[C@H](C(=O)N(C)C)CC(=O)N1C [PP3252] | 4.5 | 0.082 | A (a compound having 10 or more and less than 20 is denoted as A) | A (a compound having 10 or more and less than 20 is denoted as A)
C#CC[C@H]1C(=O)N[C@@H]([C@@H](C)CC)C(=O)N2CCC[C@H]2C(=O)N(C)[C@H]2C/C=C\CCN(C2=O)[C@@H](Cc2ccc(C(F)(F)F)cc2)C(=O)N(C)CC(=O)N[C@@H](CCc2cc(F)c(C(F)(F)F)c(F)c2)C(=O)N2C[C@H](OCC)C[C@H]2C(=O)N(C)C2(CCC2)C(=O)N(C)[C@@H](C2CCCC2)C(=O)N(C)[C@H](C(=O)N(C)C)CC(=O)N1C [PP3253] | 2.9 | 0.088 | A (a compound having 10 or more and less than 20 is denoted as A) | B (a compound having 3 or more and less than 10 is denoted as B)
C#CC[C@H]1C(=O)N[C@@H]([C@@H](C)CC)C(=O)N2CCC[C@H]2C(=O)N(C)[C@H]2C/C=C\CCN(C2=O)[C@@H](Cc2ccc(C(F)(F)F)cc2)C(=O)N(C)CC(=O)N[C@@H](CCc2ccc(C(F)(F)F)c(Cl)c2)C(=O)N2C[C@H](OCC)C[C@H]2C(=O)N(C)C2(CCC2)C(=O)N(C)[C@@H](C2CCCC2)C(=O)N(C)[C@H](C(=O)N(C)C)CC(=O)N1C [PP3254] | 3.6 | 0.086 | A (a compound having 10 or more and less than 20 is denoted as A) | B (a compound having 3 or more and less than 10 is denoted as B)
C#CC[C@H]1C(=O)N[C@@H]([C@@H](C)CC)C(=O)N2CCC[C@H]2C(=O)N(C)[C@H]2C/C=C\CCN(C2=O)[C@@H](Cc2ccc(C)cc2)C(=O)N(C)CC(=O)N[C@@H](CCc2cc(F)c(C(F)(F)F)c(F)c2)C(=O)N2C[C@H](OCC)C[C@H]2C(=O)N(C)C2(CCC2)C(=O)N(C)[C@@H](C2CCCC2)C(=O)N(C)[C@H](C(=O)N(C)C)CC(=O)N1C [PP3256] | 4.2 | 0.078 | A (a compound having 10 or more and less than 20 is denoted as A) | A (a compound having 10 or more and less than 20 is denoted as A)
C#CC[C@H]1C(=O)N[C@@H]([C@@H](C)CC)C(=O)N2CCC[C@H]2C(=O)N(C)[C@H]2C/C=C\CCN(C2=O)[C@@H](Cc2ccc(C)cc2)C(=O)N(C)CC(=O)N[C@@H](CCc2ccc(C(F)(F)F)c(Cl)c2)C(=O)N2C[C@H](OCC)C[C@H]2C(=O)N(C)C2(CCC2)C(=O)N(C)[C@@H](C2CCCC2)C(=O)N(C)[C@H](C(=O)N(C)C)CC(=O)N1C [PP3257] | 2.2 | 0.1 | A (a compound having 10 or more and less than 20 is denoted as A) | B (a compound having 3 or more and less than 10 is denoted as B)

Continued, in another order:

IC50 [2] [nM] | Kd [3] [nM] | Compound | NRAS /KRAS [1] | HRAS /KRAS (HRAS wild-type protein)
49.8 | 1.2 | C#CC[C@H]1C(=O)N[C@@H]([C@@H](C)CC)C(=O)N2CCCC[C@H]2C(=O)N(C)[C@H]2C/C=C\CCN(C2=O)[C@@H](Cc2ccc(C(F)(F)F)cc2)C(=O)N(C)CC(=O)N[C@@H](CCc2cc(F)c(C(F)(F)F)c(F)c2)C(=O)N2C[C@H](OCC)C[C@H]2C(=O)N(C)C2(CCC2)C(=O)N(C)[C@@H](C2CCCC2)C(=O)N(C)[C@H](C(=O)N(C)C)CC(=O)N1C [PP3259] | A (a compound having 10 or more and less than 20 is denoted as A) | B (a compound having 3 or more and less than 10 is denoted as B)
196 | 5 | C#CC[C@H]1C(=O)N[C@@H]([C@@H](C)CC)C(=O)N2CCCCC[C@H]2C(=O)N(C)[C@H]2C/C=C\CCN(C2=O)[C@@H](Cc2ccc(C)cc2)C(=O)N(C)CC(=O)N[C@@H](CCc2ccc(C(F)(F)F)c(OC)c2)C(=O)N2C[C@H](OCC)C[C@H]2C(=O)N(C)C2(CCC2)C(=O)N(C)[C@@H](C2CCCC2)C(=O)N(C)[C@H](C(=O)N(C)C)CC(=O)N1C [PP3267] | A (a compound having 10 or more and less than 20 is denoted as A) | B (a compound having 3 or more and less than 10 is denoted as B)
13.9 | 0.43 | CCC[C@H]1C(=O)N[C@@H]([C@@H](C)CC)C(=O)N2CCCC[C@H]2C(=O)N(C)[C@H]2C/C=C\CCN(C2=O)[C@@H](Cc2ccc(C(F)(F)F)cc2)C(=O)N(C)CC(=O)N[C@@H](CCc2ccc(C(F)(F)F)c(OC)c2)C(=O)N2C[C@H](OCC)C[C@H]2C(=O)N(C)C2(CCC2)C(=O)N(C)[C@@H](C2CCCC2)C(=O)N(C)[C@H](C(=O)N(C)C)CC(=O)N1C [PP3270] | A (a compound having 10 or more and less than 20 is denoted as A) | B (a compound having 3 or more and less than 10 is denoted as B)
22.7 | 0.82 | CCC[C@H]1C(=O)N[C@@H]([C@@H](C)CC)C(=O)N2CCCC[C@H]2C(=O)N(C)[C@H]2C/C=C\CCN(C2=O)[C@@H](Cc2ccc(C(F)(F)F)cc2)C(=O)N(C)CC(=O)N[C@@H](CCc2cc(F)c(C(F)(F)F)c(F)c2)C(=O)N2C[C@H](OCC)C[C@H]2C(=O)N(C)C2(CCC2)C(=O)N(C)[C@@H](C2CCCC2)C(=O)N(C)[C@H](C(=O)N(C)C)CC(=O)N1C [PP3271] | A (a compound having 10 or more and less than 20 is denoted as A) | B (a compound having 3 or more and less than 10 is denoted as B)
19.4 | 0.96 | CCC[C@H]1C(=O)N[C@@H]([C@@H](C)CC)C(=O)N2CCCC[C@H]2C(=O)N(C)[C@H]2C/C=C\CCN(C2=O)[C@@H](Cc2ccc(C(F)(F)F)cc2)C(=O)N(C)CC(=O)N[C@@H](CCc2ccc(C(F)(F)F)c(Cl)c2)C(=O)N2C[C@H](OCC)C[C@H]2C(=O)N(C)C2(CCC2)C(=O)N(C)[C@@H](C2CCCC2)C(=O)N(C)[C@H](C(=O)N(C)C)CC(=O)N1C [PP3272] | A (a compound having 10 or more and less than 20 is denoted as A) | B (a compound having 3 or more and less than 10 is denoted as B)
34 | 0.5 | CCC[C@H]1C(=O)N[C@@H]([C@@H](C)CC)C(=O)N2CCCC[C@H]2C(=O)N(C)[C@H]2C/C=C\CCN(C2=O)[C@@H](Cc2ccc(C)cc2)C(=O)N(C)CC(=O)N[C@@H](CCc2ccc(C(F)(F)F)c(OC)c2)C(=O)N2C[C@H](OCC)C[C@H]2C(=O)N(C)C2(CCC2)C(=O)N(C)[C@@H](C2CCCC2)C(=O)N(C)[C@H](C(=O)N(C)C)CC(=O)N1C [PP3273] | A (a compound having 10 or more and less than 20 is denoted as A) | B (a compound having 3 or more and less than 10 is denoted as B)
